The target of this test is T1, IRAK4 (Homo sapiens, UniProt Q9NWZ3).
T1 sequence (Q9NWZ3 1-460): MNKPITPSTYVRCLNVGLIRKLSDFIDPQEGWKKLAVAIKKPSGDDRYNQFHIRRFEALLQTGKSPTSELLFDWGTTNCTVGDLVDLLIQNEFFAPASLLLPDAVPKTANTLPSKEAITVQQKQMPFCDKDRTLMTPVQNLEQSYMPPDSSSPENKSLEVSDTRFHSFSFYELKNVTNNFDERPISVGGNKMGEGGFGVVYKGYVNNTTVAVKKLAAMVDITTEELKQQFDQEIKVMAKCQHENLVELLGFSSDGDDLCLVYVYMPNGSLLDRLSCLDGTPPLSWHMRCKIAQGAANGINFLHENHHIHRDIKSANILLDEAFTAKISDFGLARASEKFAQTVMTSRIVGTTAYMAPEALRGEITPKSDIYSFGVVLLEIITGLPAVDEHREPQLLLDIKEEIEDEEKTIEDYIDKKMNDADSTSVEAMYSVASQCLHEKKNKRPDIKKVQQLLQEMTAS
In words: Hibit fluorescence detection of proteolysis (IRAK4-HiBiT in HEK293T cells). Set-up: host or cells: HEK293T (ATCC). Conditions: for Dmax: HEK-293T. The format is cell-based. How it is done:
Utilizing HiBiT tag technology, the HiBiT tag-containing sequence (Seq. ID. No. 1, Beijing Tsingke Biotech Co., Ltd.) was connected to the IRAK4 plasmid (Seq. ID. No. 2, Beijing Tsingke Biotech Co., Ltd.), and the plasmid was transfected into HEK293T cells (ATCC). […] The 6-well plate that was incubated overnight was taken out. After the plate was left at room temperature for 15 min, the obtained mixture was added dropwise to the 6-well plate. […] Culture was performed at 37°C and 5% CO2 for 24 h. The 384-well plate was taken out and equilibrated to room temperature. 40 µL of Nano-Glo® HiBiT Lytic Detection System (Promega N3030) was added to each well and incubated at room temperature for 15 min. […] Prism 9.3 software was used to perform fitting analysis for data, and non-linear fitting (non-liner inhibitor (Bell-shaped)) and four parameters (4 parameter) were used, and the parameters was as follows: Span1 = Plateau1−Dip [formula] Span2 = Plateau2−Dip [formula] Section1 = Span1/(1+10^(∧)((LogEC50_1−X)*nH1)) [formula] Section2 = Span2/(1+10^(∧)((X−LogEC50_2)*nH2)) [formula]
The equation was as follows: Y=Dip+Section1+Section2. • Seq. ID. No. 1 ([…]), other DNA, synthetic construct, sequence length 33; • Seq. ID. No. 2 [formula]
In general terms: With HiBiT, luminescence reflects the tagged protein that the partner subunit can reach.

Where [1] appears, read: IRAK4-HiBiT, HEK293T cells, 24 h.
Setting [2] is: IRAK4-HiBiT, HEK293T cells, 24 h, read-out: DC50.

Where two headings read alike, the source gives them in different places. Some results are limits rather than exact numbers.

Experimental findings from patent publication EP4759807A1, “PROTEOLYSIS TARGETING CHIMERA COMPOUND FOR DEGRADING IRAK4 AND USE THEREOF” (Shenzhen Zhongge Biological Technology Co., Ltd., priority 2023, dated 2025) are described below.

Compound `Cn1c(=O)n(C2CCC(=O)NC2=O)c2cccc(N3CC(N4CCN(C[C@H]5CC[C@H](n6cc(-n7cc(-c8ccc9cc(C(N)=O)cnn89)nn7)c(C(F)F)n6)CC5)CC4)C3)c21` (some centres unmarked) [Example 63, 7-(1-(3-(difluoromethyl)-1-((1r,4r)-4-((4-(1-(1-(2,6-dioxopiperidin-3-yl)-3-methyl-2-oxo-2,3-dihydro-1H-benzo[d]imidazol-4-yl)azetidin-3-yl)piperazin-1-yl)methyl)cyclohexyl)-1H-pyrazol-4-yl)-1H-1,2,3-triazol-4-yl)pyrrolo[1,2-b]pyridazine-3-carboxamide] came in with a Dmax of 60 to 70%. Also, under setting [1], the DC50 was under 0.5 nM.
Taken in the same sequence, the figures for `Cn1c(=O)n(C2CCC(=O)NC2=O)c2cccc(C#CC3(O)CN(C[C@H]4CC[C@H](n5cc(-n6cc(-c7ccc8cc(C(N)=O)cnn78)nn6)c(C(F)F)n5)CC4)C3)c21` (some centres unmarked) [Example 19] were 70 to 80% and 0.5 to 1 nM.
Consider `NC(=O)c1cnn2c(-c3cn(-c4cn([C@H]5CC[C@H](CN6CCN(c7ccc8c(c7)CN(C7CCC(=O)NC7=O)C8=O)CC6)CC5)nc4C(F)F)nn3)ccc2c1` (some centres unmarked) [Example 72, 7-(1-(3-(difluoromethyl)-1-((1r,4r)-4-((4-(2-(2,6-dioxopiperidin-3-yl)-1-oxoisoindolin-5-yl)piperazin-1-yl)methyl)cyclohexyl)-1H-pyrazol-4-yl)-1H-1,2,3-triazol-4yl)pyrrolo[1,2-b]pyridazine-3-carboxamide], for which the Dmax lay in the range of 60 to 70%. Under setting [1], the DC50 was under 0.5 nM.
For `Cn1c(=O)n(C2CCC(=O)NC2=O)c2cccc(N3CCC4(CCN(C[C@H]5CC[C@H](n6cc(-n7cc(-c8cnn9ccc(N%10CCC(C)(O)CC%10)nc89)nn7)c(C(F)F)n6)CC5)CC4)CC3)c21` (some centres unmarked) [Example 121], in that order: over 80% and under 0.5 nM.
For `Cn1c(=O)n(C2CCC(=O)NC2=O)c2cccc(N3CCC4(CCN(C[C@H]5CC[C@H](n6cc(-n7cc(-c8cnn9ccc(N%10CCC[C@H](O)C%10)nc89)nn7)c(C(F)F)n6)CC5)CC4)C3)c21` (some centres unmarked) [Example 143], in that order: over 80% and under 0.5 nM.
The compound `Cn1c(=O)n(C2CCC(=O)NC2=O)c2cccc(N3CCC(N4CCN(C[C@H]5CC[C@H](n6cc(-n7cc(-c8ccc9cc(C(N)=O)cnn89)nn7)c(C(F)F)n6)CC5)CC4)CC3)c21` (some centres unmarked) [Example 91, 7-(1-(3-(difluoromethyl)-1-((1r,4r)-4-((4-(1-(1-(2,6-dioxopiperidin-3-yl)-3-methyl-2-oxo-2,3-dihydro-1H-benzo[d]imidazol-4-yl)piperidin-4-yl)piperazin-1-yl)methyl)cyclohexyl)-1H-pyrazol-4-yl)-1H-1,2,3-triazol-4-yl)pyrrolo[1,2-b]pyridazine-3-carboxamide] had a Dmax of over 80%. In addition, the DC50 under setting [1] was under 0.5 nM.
In turn, `Cn1c(=O)n(C2CCC(=O)NC2=O)c2cccc(N3CCC(N4CCN(C[C@H]5CC[C@H](n6cc(-n7cc(-c8cnn9cc(C#N)cnc89)nn7)c(C(F)F)n6)CC5)CC4)CC3)c21` (some centres unmarked) [Compound 197] yielded a Dmax of 60 to 70%. Under setting [2], the DC50 was 1 to 5 nM.
As to `Cn1c(=O)n(C2CCC(=O)NC2=O)c2cccc(N3CCC4(CCN(C[C@H]5CC[C@H](n6cc(-n7cc(-c8ccc9cc(C(N)=O)cnn89)nn7)c(C(F)F)n6)CC5)C4)C3)c21` (some centres unmarked) [Example 80, 7-(1-(3-(difluoromethyl)-1-((1r,4r)-4-(7-(1-(2,6-dioxy-3-yl)-3-methyl-2-oxo-2,3-dihydro-1H-benzo[d]imidazol-4-yl)-2,7-diazaspiro[4.4]non-2-yl)methyl)-1H-pyrazol-4-yl)-1H-1,2,3-triazol-4-yl)pyrrolo[1,2-b]pyridazine-3-carboxamide], the Dmax was over 80%. The DC50 under setting [1] is under 0.5 nM.
In the case of `NC(=O)c1cnn2c(-c3cn(-c4cn(C5CCN(CC6CCN(c7ccc8c(c7)C(=O)N(C7CCC(=O)NC7=O)C8=O)CC6)CC5)nc4C(F)F)nn3)ccc2c1` (centres unmarked) [Example 94, 7-(1-(3-(difluoromethyl)-1-(1-((1-(2-(2,6-dioxopiperidin-3-yl)-1,3-dioxoisoindolin-5-yl)piperidin-4-yl)methyl)piperidin-4-yl)-1H-pyrazol-4-yl)-1H-1,2,3-triazol-4-yl)pyrrolo[1,2-b]pyridazine-3-carboxamide], the Dmax (IRAK4-HiBiT, HEK293T cells, 24 h, read-out: Dmax) was under 60%. Further, the DC50 under setting [2] is under 0.5 nM.
Regarding `Cn1c(=O)n(C2CCC(=O)NC2=O)c2cccc(CN3CCC4(CC3)CN(C[C@H]3CC[C@H](n5cc(-n6cc(-c7cnn8ccc(N9CCOCC9)nc78)nn6)c(C(F)F)n5)CC3)C4)c21` (some centres unmarked) [Example 14], the Dmax is under 60%. The compound further registered a DC50 under setting [1] of 0.5 to 1 nM.
In the case of `Cn1c(=O)n(C2CCC(=O)NC2=O)c2cccc(N3CCN(C[C@H]4CC[C@H](n5cc(-n6cc(-c7cnn8ccc(NCC9CC9)nc78)nn6)c(C(F)F)n5)CC4)CC3)c21` (some centres unmarked) [Compound 225], the Dmax was in the range of 70 to 80%. The DC50 under setting [2] is under 0.5 nM.
For `Cn1c(=O)n(C2CCC(=O)NC2=O)c2cccc(NCCC3CC4(C3)CN(C[C@H]3CC[C@H](n5cc(-n6cc(-c7cnn8ccc(N9CCOCC9)nc78)nn6)c(C(F)F)n5)CC3)C4)c21` (some centres unmarked) [Example 26, 3-(4-((2-(2-(((1r,4r)-4-(3-(difluoromethyl)-4-(4-(5-morpholinopyrazolo[1,5-a]pyrimidin-3-yl)-1H-1,2,3-triazol-1-yl)-1H-pyrazol-1-yl)cyclohexyl)methyl)-2-azaspiro[3.3]heptan-6-yl)ehtyl)amino)-3-methyl-2-oxo-2,3-dihydro-1H-benzo[d]imidazol-1-yl)piperidine-2,6-dione], the Dmax lay within 70 to 80%. This compound also returned a DC50 under setting [1] of under 0.5 nM.
For `Cn1c(=O)n(C2CCC(=O)NC2=O)c2cccc(N3CC4(CCN(C[C@H]5CC[C@H](n6cc(-n7cc(-n8ccc9cc(C(N)=O)cnc98)nn7)c(C(F)F)n6)CC5)CC4)C3)c21` (some centres unmarked) [Example 105, 1-(1-(3-(difluoromethyl)-1-((1r,4r)-4-((2-(1-(2,6-dioxopiperidin-3-yl)-3-methyl-2-oxo-2,3-dihydro-1H-benzo[d]imidazol-4-yl)-2,7-diazaspiro[3.5]non-7-yl)methyl)cyclohexyl)-1H-pyrazol-4-yl)-1H-1,2,3-triazol-4-yl)-1H-pyrrolo[2,3-b]pyridine-5-carboxamide], in that order: over 80% and under 0.5 nM.
Taken in the same sequence, the figures for `Cn1c(=O)n(C2CCC(=O)NC2=O)c2cccc(CC3CCN(CC4CCN(C[C@H]5CC[C@H](n6cc(-n7cc(-c8cnn9ccc(N%10CCOCC%10)nc89)nn7)c(C(F)F)n6)CC5)CC4)CC3)c21` (some centres unmarked) [Example 8] were under 60% and over 5 nM.
Taken in the same sequence, the figures for `C[C@@H]1CN(c2cccc3c2n(C)c(=O)n3C2CCC(=O)NC2=O)CCN1C[C@H]1CC[C@H](n2cc(-n3cc(-c4cnn5ccc(N6CCOCC6)nc45)nn3)c(C(F)F)n2)CC1` (some centres unmarked) [Example 50] were 60 to 70% and 0.5 to 1 nM.
For `Cn1c(=O)n(C2CCC(=O)NC2=O)c2cccc(N3CCN(C[C@H]4CC[C@H](n5cc(-n6cc(-c7cnn8ccc(N[C@@H]9CCCC[C@@H]9O)nc78)nn6)c(C(F)F)n5)CC4)CC3)c21` (some centres unmarked) [Example 268], the Dmax lay within 70 to 80%. In addition, the DC50 under setting [1] lay in the range of 0.5 to 1 nM.
Turning to `CN1CCN(c2ccn3ncc(-c4cn(-c5cn([C@H]6CC[C@H](CN7CCC(N8CCN(c9cccc%10c9n(C)c(=O)n%10C9CCC(=O)NC9=O)CC8)CC7)CC6)nc5C(F)F)nn4)c3n2)CC1` (some centres unmarked) [Compound 229], the Dmax lay in the range of 60 to 70%. The DC50 under setting [2] is under 0.5 nM.
For `Cn1c(=O)n(C2CCC(=O)NC2=O)c2cccc(C#CCOC3CCN(C[C@H]4CC[C@H](n5cc(-n6cc(-c7cnn8ccc(N9CCOCC9)nc78)nn6)c(C(F)F)n5)CC4)CC3)c21` (some centres unmarked) [Example 7], the Dmax lay within 60 to 70%. This compound had a DC50 under setting [1] of under 0.5 nM.
For `Cn1c(=O)n(C2CCC(=O)NC2=O)c2cccc(C3CCN(C[C@H]4CC[C@H](n5cc(-n6cc(-c7cnn8ccc(N9CCOCC9)nc78)nn6)c(C(F)F)n5)CC4)CC3)c21` (some centres unmarked) [Example 11, 3-(4-(1-(((1r,4r)-4-(3-(difluoromethyl)-4-(4-(5-morpholinopyrazolo[1,5-a]pyrimidin-3-yl)-1H-1,2,3-triazol-1-yl)-1H-pyrazol-1-yl)cyclohexyl)methyl)piperidin-4-yl)-3-methyl-2-oxo-2,3-dihydro-1H-benzo[d]imidazol-1-yl)piperidine-2,6-dione], in that order: over 80% and under 0.5 nM.
